Test results: patent US11780812B2, “Oxopyridine derivatives useful as aminocarboxymuconate semialdehyde decarboxylase (ACMSD) inhibitors” (OrsoBio, Inc., priority 2016, dated 2023)

Biological target: human ACMSD (Homo sapiens (Human), UniProt Q8TDX5)
Test: Human ACMSD-1 inhibitor assay (coupled 3-HAO/ACMSD, absorbance at 360 nm)
Details: read-out: hACMSD IC50; human ACMSD 6 μg/ml, 50 mM MES pH 6.0, 28° C., four-parameter dose-response fit
Description: A solution of 7.8 μg/ml 3-hydroxyanthranilate 3,4-dioxygenase (3-HAO) with protein dilution buffer (50 mM 4-Morpholineethanesulfonic acid “MES” pH 6.0) and a solution of 6 μg/ml Human 2-amino-3-carboxymuconate-6-semialdehyde decarboxylase (human ACMSD) with protein dilution buffer (50 mM MES pH 6.0) were prepared separately. A serial 2-fold dilution of test compounds, from 512 nM until 0.5 nM were prepared.
The plate was placed into a SpectraMax Plus 384 Microplate Reader, Molecular Devices with the temperature set to 28° C. The absorbance at 360 nm for 10 min with 10 seconds interval was monitored and recorded.
To a 96-well plate was added 50 μl of 6 μg/ml human ACMSD with series concentrations of the test compound. The absorbance was recorded at 360 nm for 10 min with 10 seconds interval. The data was analyzed in GraphPad Prism 6. A four-parameter dose-response curve was fitted. “Hill Slope” was constrained between −0.5 and −3, and such constrains was indicated when applied.

Chain of human ACMSD (Q8TDX5 whole entry): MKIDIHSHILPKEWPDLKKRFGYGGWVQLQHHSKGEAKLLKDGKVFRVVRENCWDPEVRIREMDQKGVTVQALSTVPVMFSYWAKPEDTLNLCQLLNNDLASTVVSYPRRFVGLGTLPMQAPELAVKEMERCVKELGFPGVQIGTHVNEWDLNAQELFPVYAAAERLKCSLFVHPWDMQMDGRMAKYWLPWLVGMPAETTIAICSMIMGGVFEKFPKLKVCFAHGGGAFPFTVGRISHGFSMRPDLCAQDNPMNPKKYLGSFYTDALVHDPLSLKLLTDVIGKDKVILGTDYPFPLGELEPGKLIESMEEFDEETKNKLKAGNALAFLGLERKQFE

SMILES | IC50
N#Cc1c(SCC(=O)O)[nH]c(=O)c(C#N)c1C(F)(F)F [Ex. 39, 2-((3,5-dicyano-6-oxo-4-(trifluoromethyl)-1,6-dihydropyridin-2-yl)thio)acetic acid] | > 10000 nM
COc1ccc(C(=O)O)cc1CSc1[nH]c(=O)cc(C(F)(F)F)c1C#N [Ex. 16, 3-(((3-cyano-6-oxo-4-(trifluoromethyl)-1,6-dihydropyridin-2-yl)thio)methyl)-4-methoxybenzoic acid] | 530 nM
CC(C)(C)c1cc(=O)[nH]c(SCC(=O)O)c1C#N [Ex. 10, 2-((4-(tert-butyl)-3-cyano-6-oxo-1,6-dihydropyridin-2-yl)thio)acetic acid] | 4600 nM
N#Cc1c(SCc2nnn[nH]2)[nH]c(=O)c(F)c1C(F)(F)F [Ex. 48, 2-((1H-tetrazol-5-yl)methylthio)-5-fluoro-6-oxo-4-(trifluoromethyl)-1,6-dihydropyridine-3-carbonitrile] | 2 nM
N#Cc1c(C(F)(F)F)cc(=O)[nH]c1SCc1cccc(-c2nnn[nH]2)c1 [Ex. 42, 2-(3-(1H-tetrazol-5-yl)benzylthio)-6-oxo-4-(trifluoromethyl)-1,6-dihydropyridine-3-carbonitrile] | 32 nM
Cc1ccc(-c2cc(=O)[nH]c(SCc3cccc(C(=O)O)c3)c2C#N)cc1 [Ex. 29, 3-(((3-cyano-6-oxo-4-(p-tolyl)-1,6-dihydropyridin-2-yl)thio)methyl)benzoic acid] | 4 nM
CC(C)c1cc(=O)[nH]c(SCC(=O)O)c1C#N [Ex. 13, 2-((3-cyano-4-isopropyl-6-oxo-1,6-dihydropyridin-2-yl)thio)acetic acid] | 2600 nM
N#Cc1c(C(F)(F)F)cc(=O)[nH]c1SC(F)C(=O)O (stereo not drawn) [Ex. 27, 2-(3-cyano-6-oxo-4-(trifluoromethyl)-1,6-dihydropyridin-2-ylthio)-2-fluoroacetic acid] | 9 nM
Cc1c(C(F)(F)F)c(C#N)c(SCC(=O)O)[nH]c1=O [Ex. 5, 2-((3-cyano-5-methyl-6-oxo-4-(trifluoromethyl)-1,6-dihydropyridin-2-yl)thio)acetic acid] | 26 nM
N#Cc1c(C(F)(F)F)cc(=O)[nH]c1SCCC(=O)O [Ex. 2, 3-(3-cyano-6-oxo-4-(trifluoromethyl)-1,6-dihydropyridin-2-ylthio)propanoic acid] | 752 nM
Cc1cc(=O)[nH]c(SCC(=O)O)c1C#N [reference compound] | 2990 nM
N#Cc1c(-c2cccs2)cc(=O)[nH]c1SCc1cccc(C(=O)O)c1 [Ex. 23, 3-(((3-cyano-6-oxo-4-(thiophen-2-yl)-1,6-dihydropyridin-2-yl)thio)methyl)benzoic acid] | 7 nM
